Entries after “also recorded” stand apart in the source; their conditions may differ. Positions of bridges follow the written chain, without caps; N, C: chain ends. No end group written: not given here.
Legend:
[1] = system: normal rats; conditions: repeated administration; cited from earlier work
[2] = system: mouse bone marrow cells (CFU-E); test: in vitro mouse CFU-E colony assay (methyl cellulose semi-solid medium, with rHuEPO); type: cell-based
Description: In the case of oral administration to rats, the blood arginine concentration reaches about 600 μM by a single-dose administration of arginine at 1.2 g/kg. Therefore, it is expected that the number of CFU-E increases in a dose-dependent manner by such an oral administration. Also in humans, it is expected that the number of CFU-E increases as the concentration of arginine in the blood increases by the oral administration.
An in vitro mouse CFU-E colony assay was carried out in accordance with the following method. After a female BDF-1 mouse at 10 weeks of age (Charles River Japan, Inc.) was killed by the cervical dislocation method, bone marrow cells were isolated from the femur and suspended in an IMDM medium (Invitrogen) containing 10% FCS (JRH Bioscience Inc). The bone marrow cells were centrifuged at 1500 rpm for 10 minutes at 4° C. and the precipitated bone marrow cells were resuspended in an amino acid-free IMDM medium and the number of cells was measured. […] Then, the number of CFU-E colonies was measured using an inverted microscope. […]
In the graph, * indicates P<0.05. The data is expressed as a mean value±SEM. […]

[3] = system: mouse bone marrow cells (CFU-E); test: CFU-E colony assay with EPO mimetic peptide EMP1; type: cell-based
Description: After a female BDF-1 mouse at 10 weeks of age (Charles River Japan, Inc.) was killed by the cervical dislocation method, bone marrow cells were isolated from the femur and suspended in an IMDM medium (Invitrogen) containing 10% FCS (JRH Bioscience Inc). The bone marrow cells were centrifuged at 1500 rpm for 10 minutes at 4° C. and the precipitated bone marrow cells were resuspended in an amino acid-free IMDM medium and the number of cells was measured. To a dish with a diameter of 3.5 cm (Nalgen Nunc, Inc. International), 1 ml of a methyl cellulose semi-solid medium in which the bone marrow cells were suspended {30 μM EMP1, 100 μM 2-mercaptoethanol (Wako Pure Chemical Industries, Ltd.), 24% FCS (JRH Bioscience Inc.), 0.8% methyl cellulose (methyl cellulose containing IMDM solution […], Stem Cell Technologies, Inc.), 2% BSA (SIGMA-ALDRICH Japan K.K.), 1×10^5 cells/ml of bone marrow cells} containing arginine at a concentration of 170 μM was added (which is equal to an IMDM medium whose concentration of the amino acid composition is one-third and which includes FCS at 24%). […] Then, the number of CFU-E colonies was measured using an inverted microscope. […] The data is expressed as a mean value ±SEM. […]

Molecule	amount of hemoglobin [1]	amount of red blood cells [1]	number of CFU-E colonies ([2]; arginine 600 μM vs 170 μM, 1 IU/ml rHuEPO, 48 hours, per 2.2×10^5 bone marrow cells, P<0.05)	combined effect of arginine with EPO on CFU-E ([2]; arginine concomitantly with a sufficient amount of EPO)	number of CFU-E colonies ([3]; arginine 770 μM vs 170 μM, 30 μM EMP1, 48 hours, P<0.05)	amount of EMP1 for the highest action (CFU-E colonies) ([3]; same condition as FIG. 2A, FIG. 2B) [µM]
N=C(N)NCCC[C@H](N)C(=O)O [arginine]	increased	increased	increased the number of CFU-E; also recorded: further increases CFU-E; also recorded: significantly increases	synergistic effect	increased the number of CFU-E	–
GGTYSCHFGPLTWVCKPQGG-NH2 (disulfide 6-15; N-terminus assumed; SMILES CC(C)C[C@@H]1NC(=O)[C@@H]2CCCN2C(=O)CNC(=O)[C@H](Cc2ccccc2)NC(=O)[C@H](Cc2c[nH]cn2)NC(=O)[C@@H](NC(=O)[C@H](CO)NC(=O)[C@H](Cc2ccc(O)cc2)NC(=O)[C@@H](NC(=O)CNC(=O)CN)[C@@H](C)O)CSSC[C@@H](C(=O)N[C@@H](CCCCN)C(=O)N2CCC[C@H]2C(=O)N[C@@H](CCC(N)=O)C(=O)NCC(=O)NCC(N)=O)NC(=O)[C@H](C(C)C)NC(=O)[C@H](Cc2c[nH]c3ccccc23)NC(=O)[C@H]([C@@H](C)O)NC1=O) [EMP1, EPO mimetic peptide described in Science, vol; 273, pp. 458-463 (1996), reference compound]	–	–	–	–	–	≥ 10

Reference: US20070037886A1, “Bone marrow erythroid progenitor cell(s) differentiation inducer” (priority 2005, published 2007)
